Melting point data for 18 molecules are collected here from patent publication US20100292188A1, “Compounds Comprising A Cyclobutoxy Group” (UCB PHARMA S.A., priority 2008, published 2010).

The melting point is the temperature of the solid-liquid transition.

SMILES strings stand for the structures.

Molecule `NC(=O)NCC(=O)N1CCc2nc(-c3ccc(O[C@H]4C[C@H](N5CCCCC5)C4)cc3)sc2C1` [Compound 52, 1-{2-oxo-2-[2-{4-[(trans-3-piperidin-1-ylcyclobutyl)oxy]phenyl}-6,7-dihydro[1,3]thiazolo[5,4-c]pyridin-5(4H)-yl]ethyl}urea] gave a melting point of 209 to 210 °C.
With `O=C(N1CCc2nc(-c3ccc(O[C@H]4C[C@H](N5CCCCC5)C4)cc3)sc2C1)C1(O)CC1` [Compound 46, 1-{[2-{4-[(trans-3-piperidin-1-ylcyclobutyl)oxy]phenyl}-6,7-dihydro[1,3]thiazolo[5,4-c]pyridin-5(4H)-yl]carbonyl}cyclopropanol] the figure was 178 °C.
For `NC(=O)N1CCc2nc(-c3ccc(O[C@H]4C[C@H](N5CCCCC5)C4)cc3)sc2C1` [Compound 10, 2-{4-[(trans-3-piperidin-1-ylcyclobutyl)oxy]phenyl}-6,7-dihydro[1,3]thiazolo[5,4-c]pyridine-5(4H)-carboxamide] the value was 199 °C; for `O=C(CO)N1CCc2sc(-c3ccc(O[C@H]4C[C@H](N5CCCCC5)C4)cc3)nc2C1` [Compound 63, 2-oxo-2-[2-{4-[(trans-3-piperidin-1-ylcyclobutyl)oxy]phenyl}-6,7-dihydro[1,3]thiazolo[4,5-c]pyridin-5(4H)-yl]ethanol], 155.3 °C.
With `CC(=O)N1CCc2nc(-c3ccc(O[C@H]4C[C@H](N5CCC(F)(F)CC5)C4)cc3)sc2C1` [Compound 13, 5-acetyl-2-(4-{[trans-3-(4,4-difluoropiperidin-1-yl)cyclobutyl]oxy}phenyl)-4,5,6,7-tetrahydro[1,3]thiazolo[5,4-c]pyridine] the figure was 175 °C; with `O=C(C(O)C(F)(F)F)N1CCc2nc(-c3ccc(O[C@H]4C[C@H](N5CCCCC5)C4)cc3)sc2C1` (stereo partly drawn) [Compound 44, 1,1,1-trifluoro-3-oxo-3-[2-{4-[(trans-3-piperidin-1-ylcyclobutyl)oxy]phenyl}-6,7-dihydro[1,3]thiazolo[5,4-c]pyridin-5(4H)-yl]propan-2-ol], 147 to 148 °C; with `CC(=O)N1CCCc2sc(-c3ccc(O[C@H]4C[C@H](N5CCCCC5)C4)cc3)nc21` [Compound 30, 4-acetyl-2-{4-[(trans-3-piperidin-1-ylcyclobutyl)oxy]phenyl}-4,5,6,7-tetrahydro[1,3]thiazolo[4,5-b]pyridine], 146 °C.
Molecule `O=c1c(O)c(N2CCc3nc(-c4ccc(O[C@H]5C[C@H](N6CCCCC6)C5)cc4)sc3C2)c1=O` [Compound 55, 3-hydroxy-4-[2-{4-[(trans-3-piperidin-1-ylcyclobutyl)oxy]phenyl}-6,7-dihydro[1,3]thiazolo[5,4-c]pyridin-5(4H)-yl]cyclobut-3-ene-1,2-dione] came in with a melting point of over 220 °C.
For `O=C(O)COCC(=O)N1CCc2nc(-c3ccc(O[C@H]4C[C@H](N5CCCCC5)C4)cc3)sc2C1` [Compound 43, {2-oxo-2-[2-{4-[(trans-3-piperidin-1-ylcyclobutyl)oxy]phenyl}-6,7-dihydro[1,3]thiazolo[5,4-c]pyridin-5(4H)-yl]ethoxy}acetic acid] the value was over 200 °C; for `NC(=O)CN1CCc2nc(-c3ccc(O[C@H]4C[C@H](N5CCCCC5)C4)cc3)sc2C1` [Compound 18, 2-[2-{4-[(trans-3-piperidin-1-ylcyclobutyl)oxy]phenyl}-6,7-dihydro[1,3]thiazolo[5,4-c]pyridin-5(4H)-yl]acetamide], 231 °C.
In turn, `COC(=O)CN1CCc2nc(-c3ccc(O[C@H]4C[C@H](N5CCCCC5)C4)cc3)sc2C1` [Compound 26, methyl [2-{4-[(trans-3-piperidin-1-ylcyclobutyl)oxy]phenyl}-6,7-dihydro[1,3]thiazolo[5,4-c]pyridin-5(4H)-yl]acetate] yielded a melting point of 221 °C.
For `O=C(N1CCOCC1)N1CCc2nc(-c3ccc(O[C@H]4C[C@H](N5CCCCC5)C4)cc3)sc2C1` [Compound 6, 5-(morpholin-4-ylcarbonyl)-2-{4-[(trans-3-piperidin-1-ylcyclobutyl)oxy]phenyl}-4,5,6,7-tetrahydro[1,3]thiazolo[5,4-c]pyridine], the melting point is 149.3 °C.
For `NC(=O)C1(C(=O)N2CCc3nc(-c4ccc(O[C@H]5C[C@H](N6CCCCC6)C5)cc4)sc3C2)CC1` [Compound 47, 1-{[2-{4-[(trans-3-piperidin-1-ylcyclobutyl)oxy]phenyl}-6,7-dihydro[1,3]thiazolo[5,4-c]pyridin-5(4H)-yl]carbonyl}cyclopropanecarboxamide] the value was 199 to 200 °C; for `CC(=O)N1CCc2oc(-c3ccc(O[C@H]4C[C@H](N5CCCCC5)C4)cc3)nc2C1` [Compound 28, 5-acetyl-2-{4-[(trans-3-piperidin-1-ylcyclobutyl)oxy]phenyl}-4,5,6,7-tetrahydro[1,3]oxazolo[4,5-c]pyridine], 141.9 °C; for `CC(=O)N1CCc2nc(-c3ccc(O[C@H]4C[C@H](N5CCN(C(C)C)CC5)C4)cc3)sc2C1` [Compound 12, 5-acetyl-2-(4-{[trans-3-(4-isopropylpiperazin-1-yl)cyclobutyl]oxy}phenyl)-4,5,6,7-tetrahydro[1,3]thiazolo[5,4-c]pyridine], 109 °C.
With `c1cc2nc(-c3ccc(O[C@H]4C[C@H](N5CCCCC5)C4)cc3)[nH]c2cn1` [Compound 69, 2-{4-[(trans-3-piperidin-1-ylcyclobutyl)oxy]phenyl}-3H-imidazo[4,5-c]pyridine] the figure was 165 to 172 °C.
For `OCCN1CCc2nc(-c3ccc(O[C@H]4C[C@H](N5CCCCC5)C4)cc3)sc2C1` [Compound 37, 2-[2-{4-[(trans-3-piperidin-1-ylcyclobutyl)oxy]phenyl}-6,7-dihydro[1,3]thiazolo[5,4-c]pyridin-5(4H)-yl]ethanol] the value was 142 °C; for `O=C(C(O)CO)N1CCc2nc(-c3ccc(O[C@H]4C[C@H](N5CCCCC5)C4)cc3)sc2C1` (stereo partly drawn) [Compound 54, 3-oxo-3-[2-{4-[(trans-3-piperidin-1-ylcyclobutyl)oxy]phenyl}-6,7-dihydro[1,3]thiazolo[5,4-c]pyridin-5(4H)-yl]propane-1,2-diol], 167 to 168 °C.
